Assay results from patent publication US20190166843A1, “Pesticidal Active Mixtures Comprising Isoxazoline Compounds I” (BASF SE, priority 2008, published 2019).

Columns and labels:
[1] = system: Green Peach Aphid (Myzus persicae); assay: Test B.1 Control of green peach aphid through systemic means, artificial diet under membrane, 96-well plates; assay type: in vivo; conditions: 3 days
From the text: (§1) Synergism can be described as an interaction where the combined effect of two or more compounds is greater than the sum of the individual effects of each of the compounds. The presence of a synergistic effect in terms of percent control, between two mixing partners (X and Y) can be calculated using the Colby equation (Colby, S. R., 1967, Calculating Synergistic and Antagonistic Responses in Herbicide Combinations, Weeds, 15, 20-22):
(§2) When the observed combined control effect is greater than the expected combined control effect (E), then the combined effect is synergistic.
For evaluating control of green peach aphid (Myzus persicae) through systemic means the test unit consisted of 96-well-microtiter plates containing liquid artificial diet under an artificial membrane.
The compounds or mixtures were formulated using a solution containing 75 wt % water and 25 wt % DMSO. Different concentrations of formulated compounds or mixtures were pipetted into the aphid diet, using a custom built pipetter, at two replications. For experimental mixtures in these tests identical volumes of both mixing partners at the desired concentrations respectively, were mixed together.
After application, 5-8 adult aphids were placed on the artificial membrane inside the microtiter plate wells. The aphids were then allowed to suck on the treated aphid diet and incubated at 23±1° C., 50+5% RH for 3 days. Aphid mortality and fecundity was then visually assessed.

[2] = system: Boll Weevil (Anthonomus grandis); assay: Test B.2 Control of boll weevil, insect diet with eggs, 24-well plates; assay type: in vivo; conditions: 5 days
From the text: as §1, §2
For evaluating control of boll weevil (Anthonomus grandis) the test unit consisted of 24-well-microtiter plates containing an insect diet and 20-30 A. grandis eggs. The compounds or mixtures were formulated using a solution containing 75 wt % water and 25 wt % DMSO. Different concentrations of formulated compounds or mixtures were sprayed onto the insect diet at 20 μl, using a custom built micro atomizer, at two replications.
For experimental mixtures in these tests identical volumes of both mixing partners at the desired concentrations respectively, were mixed together.
After application, microtiter plates were incubated at 23±1° C., 50±5% RH for 5 days. Egg and larval mortality was then visually assessed.

[3] = compound II alone at 0.4 ppm (0.4 + 0)
[4] = C.I.240 alone at 0.08 ppm (0 + 0.08)

Molecule: O=[N+]([O-])NC1=NCCN1Cc1ccc(Cl)nc1 [Imidacloprid, imidacloprid]
- Average Control % [1, 3]: 0%

Molecule: CN1COCN(Cc2cnc(Cl)s2)/C1=N\[N+](=O)[O-] [Thiamethoxam, thiamethoxam]
- Average Control % [1, 3]: 25%

Molecule: N#CCNC(=O)c1cnccc1C(F)(F)F [Flonicamid, flonicamid]
- Average Control % ([2]; compound II alone at 4 ppm (4 + 0)): 0%

Molecule: Cc1cc(C2=NOC(c3cc(Cl)cc(Cl)c3)(C(F)(F)F)C2)ccc1C(=O)NCC(=O)NCC(F)(F)F (stereo not drawn) [C.I.240]
- Average Control % [1, 4]: 0%
- Average Control % ([1]; C.I.240 alone at 2 ppm (0 + 2)): 0%
- Average Control % [2, 4]: 0%
- Average Control % ([2]; C.I.240 alone at 0.4 ppm (0 + 0.4)): 50%

Molecule: CC1(C)C(C=C(Cl)Cl)C1C(=O)OC(C#N)c1cccc(Oc2ccccc2)c1 (stereo not drawn) [Alpha-Cypermethrin, alpha-cypermethrin]
- Average Control % ([2]; compound II alone at 0.08 ppm (0.08 + 0)): 0%

Molecule: abamectin
- Average Control % ([2]; compound II alone at 0.016 ppm (0.016 + 0)): 50%
